From publication PMC10092094 (Chemmedchem, 2022)
“Also recorded” adds a separate entry of the source.

Assays:
OGG1 [1] = target: T1, OGG1 (Homo sapiens, UniProt O15527); assay: biochemical
OGG1 [2] = target: T1, OGG1; assay: Differential scanning fluorimetry; format: binding
[3] = IC50 (CI95), biochemical inhibition, confidence interval 95 in parentheses
[4] = confidence interval 95 in parentheses
[5] = IC50, biochemical inhibition, single replicate

T1 sequence (O15527 whole entry): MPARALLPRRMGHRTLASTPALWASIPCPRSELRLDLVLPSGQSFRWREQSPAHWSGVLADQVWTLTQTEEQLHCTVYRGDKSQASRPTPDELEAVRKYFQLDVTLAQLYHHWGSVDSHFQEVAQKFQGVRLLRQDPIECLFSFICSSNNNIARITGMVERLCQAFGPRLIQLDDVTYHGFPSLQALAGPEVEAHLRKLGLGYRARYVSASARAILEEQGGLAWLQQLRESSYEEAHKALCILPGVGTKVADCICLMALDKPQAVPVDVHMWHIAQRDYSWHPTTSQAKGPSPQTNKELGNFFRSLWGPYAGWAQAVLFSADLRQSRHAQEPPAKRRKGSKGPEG

Structure (SMILES)	IC50 (OGG1 [1]; [3]) [µM]	DSF stabilization (ΔT) (OGG1 [2]) [K]	other results
Cc1ccc(NC(=O)N2CCC(n3c(=O)[nH]c4ccccc43)CC2)cc1 [Compound 4, N‐(4‐methylphenyl)‐4‐(2‐oxo‐2,3‐dihydro‐1H‐1,3‐benzodiazol‐1‐yl)piperidine‐1‐carboxamide]	19.9	3.1	
O=C(Nc1ccc(Cl)cc1)N1CCC(n2c(=O)[nH]c3ccccc32)CC1 [Compound 6, N‐(4‐chlorophenyl)‐4‐(2‐oxo‐2,3‐dihydro‐1H‐1,3‐benzodiazol‐1‐yl)piperidine‐1‐carboxamide]	5.5	4.6	IC50 (OGG1 [1]; IC50 of HTS hit, concentration-response of screening hits): 10 µM
O=C(Nc1ccc(Br)cc1)N1CCC(n2c(=O)[nH]c3ccccc32)CC1 [Compound 7, N‐(4‐bromophenyl)‐4‐(2‐oxo‐2,3‐dihydro‐1H‐1,3‐benzodiazol‐1‐yl)piperidine‐1‐carboxamide]	7	2.1	
O=C(Nc1ccc(I)cc1)N1CCC(n2c(=O)[nH]c3ccccc32)CC1 [Compound 8, N‐(4‐iodophenyl)‐4‐(2‐oxo‐2,3‐dihydro‐1H‐1,3‐benzodiazol‐1‐yl)piperidine‐1‐carboxamide]	2.9	2.4	
O=C(Nc1ccc(Cl)c(Cl)c1)N1CCC(n2c(=O)[nH]c3ccccc32)CC1 [Compound 9, N‐(3,4‐dichlorophenyl)‐4‐(2‐oxo‐2,3‐dihydro‐1H‐1,3‐benzodiazol‐1‐yl)piperidine‐1‐carboxamide]	2.9	4.7	
O=C(Nc1ccccc1)N1CCC(n2c(=O)[nH]c3cc(Cl)ccc32)CC1 [Compound 11, 4‐(5‐chloro‐2‐oxo‐2,3‐dihydro‐1H‐1,3‐benzodiazol‐1‐yl)‐N‐phenylpiperidine‐1‐carboxamide]		3.3	
O=C(Nc1cccc(F)c1)N1CCC(n2c(=O)[nH]c3cc(Cl)ccc32)CC1 [Compound 12, 4‐(5‐chloro‐2‐oxo‐2,3‐dihydro‐1H‐1,3‐benzodiazol‐1‐yl)‐N‐(3‐fluorophenyl)piperidine‐1‐carboxamide]	35.1	2.4	
O=C(Nc1ccc(F)cc1)N1CCC(n2c(=O)[nH]c3cc(Cl)ccc32)CC1 [Compound 15, 4‐(5‐chloro‐2‐oxo‐2,3‐dihydro‐1H‐1,3‐benzodiazol‐1‐yl)‐N‐(4‐fluorophenyl)piperidine‐1‐carboxamide]			IC50 (CI95), biochemical inhibition (OGG1 [1]; [4]): no effect
O=C(Nc1ccc(Cl)cc1)N1CCC(n2c(=O)[nH]c3cc(Cl)ccc32)CC1 [Compound 16, 4‐(5‐chloro‐2‐oxo‐2,3‐dihydro‐1H‐1,3‐benzodiazol‐1‐yl)‐N‐(4‐chlorophenyl)piperidine‐1‐carboxamide]	2	3.8	
O=C(Nc1ccc(Br)cc1)N1CCC(n2c(=O)[nH]c3cc(Cl)ccc32)CC1 [Compound 17, 4‐(5‐chloro‐2‐oxo‐2,3‐dihydro‐1H‐1,3‐benzodiazol‐1‐yl)‐N‐(4‐bromophenyl)piperidine‐1‐carboxamide]		4.1	IC50 (OGG1 [1]; [5]): 1.6 µM
O=C(Nc1ccc(I)cc1)N1CCC(n2c(=O)[nH]c3cc(Cl)ccc32)CC1 [Compound 18, 4‐(5‐chloro‐2‐oxo‐2,3‐dihydro‐1H‐1,3‐benzodiazol‐1‐yl)‐N‐(4‐iodophenyl)piperidine‐1‐carboxamide]		1.6	
O=C(Nc1ccc(Cl)c(Cl)c1)N1CCC(n2c(=O)[nH]c3cc(Cl)ccc32)CC1 [Compound 19, 4‐(5‐chloro‐2‐oxo‐2,3‐dihydro‐1H‐1,3‐benzodiazol‐1‐yl)‐N‐(3,4‐dichlorophenyl)piperidine‐1‐carboxamide]		3.1	
Cc1cccc2c1[nH]c(=O)n2C1CCN(C(=O)Nc2ccc(I)cc2)CC1 [Compound 20, 4‐(4‐methyl‐2‐oxo‐2,3‐dihydro‐1H‐1,3‐benzodiazol‐1‐yl)‐N‐(4‐iodophenyl)piperidine‐1‐carboxamide]	0.63	3.8	
Cc1ccc2c(c1)[nH]c(=O)n2C1CCN(C(=O)Nc2ccc(I)cc2)CC1 [Compound 21, 4‐(5‐methyl‐2‐oxo‐2,3‐dihydro‐1H‐1,3‐benzodiazol‐1‐yl)‐N‐(4‐iodophenyl)piperidine‐1‐carboxamide]	1.7	3.8	
Cc1ccc2[nH]c(=O)n(C3CCN(C(=O)Nc4ccc(I)cc4)CC3)c2c1 [Compound 22, 4‐(6‐methyl‐2‐oxo‐2,3‐dihydro‐1H‐1,3‐benzodiazol‐1‐yl)‐N‐(4‐iodophenyl)piperidine‐1‐carboxamide]			IC50 (CI95), biochemical inhibition (OGG1 [1]; [4]): inactivity; also recorded: no effect
Cc1cccc2[nH]c(=O)n(C3CCN(C(=O)Nc4ccc(I)cc4)CC3)c12 [Compound 23, 4‐(7‐methyl‐2‐oxo‐2,3‐dihydro‐1H‐1,3‐benzodiazol‐1‐yl)‐N‐(4‐iodophenyl)piperidine‐1‐carboxamide]		2.2	IC50 (OGG1 [1]; [5]): 8.7 µM

Structure (SMILES)	IC50 (OGG1 [1]; [3]) [µM]	DSF stabilization (ΔT) (OGG1 [2]) [K]	other results
O=C(Nc1ccc(I)cc1)N1CCC(n2c(=O)[nH]c3c(F)cccc32)CC1 [Compound 24, 4‐(4‐fluoro‐2‐oxo‐2,3‐dihydro‐1H‐1,3‐benzodiazol‐1‐yl)‐N‐(4‐iodophenyl)piperidine‐1‐carboxamide]	2.2	3.9	
CN(C(=O)N1CCC(n2c(=O)[nH]c3c(Br)cccc32)CC1)c1ccc(Cl)c(Cl)c1 [Compound 29, 4‐(4‐bromo‐2‐oxo‐2,3‐dihydro‐1H‐1,3‐benzodiazol‐1‐yl)‐N‐(3,4‐dichlorophenyl)‐N‐methylpiperidine‐1‐carboxamide]			Activity against OGG1 (in words) (OGG1 [1]): no or a very low activity
O=C(Cc1ccc(I)cc1)N1CCC(n2c(=O)[nH]c3c(Br)cccc32)CC1 [Compound 30, 4‐bromo‐1‐{1‐[2‐(4‐iodophenyl)acetyl]piperidin‐4‐yl}‐2,3‐dihydro‐1H‐1,3‐benzodiazol‐2‐one]			Activity against OGG1 (in words) (OGG1 [1]): no or a very low activity
O=C(Oc1ccc(Cl)cc1)N1CCC(n2c(=O)[nH]c3c(Br)cccc32)CC1 [Compound 31, 4‐chlorophenyl 4‐(4‐bromo‐2‐oxo‐2,3‐dihydro‐1H‐1,3‐benzodiazol‐1‐yl)piperidine‐1‐carboxylate]			Activity against OGG1 (in words) (OGG1 [1]): no or a very low activity
O=C(NC1CCCCC1)N1CCC(n2c(=O)[nH]c3c(Br)cccc32)CC1 [Compound 32, 4‐(4‐bromo‐2‐oxo‐2,3‐dihydro‐1H‐1,3‐benzodiazol‐1‐yl)‐N‐cyclohexylpiperidine‐1‐carboxamide]			Activity against OGG1 (in words) (OGG1 [1]): only weakly active
O=C(c1ccc(I)cc1)N1CCC(n2c(=O)[nH]c3c(Br)cccc32)CC1 [Compound 33, 4‐bromo‐1‐[1‐(4‐iodobenzoyl)piperidin‐4‐yl]‐2,3‐dihydro‐1H‐1,3‐benzodiazol‐2‐one]			Activity against OGG1 (in words) (OGG1 [1]): no or a very low activity
O=c1[nH]c2c(Br)cccc2n1C1CCN(S(=O)(=O)c2ccc(I)cc2)CC1 [Compound 34, 4‐bromo‐1‐[1‐(4‐iodobenzenesulfonyl)piperidin‐4‐yl]‐2,3‐dihydro‐1H‐1,3‐benzodiazol‐2‐one]			Activity against OGG1 (in words) (OGG1 [1]): no or a very low activity
COc1ncc(NC(=O)N2CCC(n3c(=O)[nH]c4c(Br)cccc43)CC2)cc1C [Compound 35, 4‐(4‐bromo‐2‐oxo‐2,3‐dihydro‐1H‐1,3‐benzodiazol‐1‐yl)‐N‐(6‐methoxy‐5‐methylpyridin‐3‐yl)piperidine‐1‐carboxamide]			Activity against OGG1 (in words) (OGG1 [1]): only weakly active
O=C(Nc1ccc(I)cc1)N1CCC(n2cnc3c(Br)cccc32)CC1 [Compound 41, 4‐(4‐bromo‐1H‐1,3‐benzodiazol‐1‐yl)‐N‐(4‐iodophenyl)piperidine‐1‐carboxamide]			Activity against OGG1 (in words) (OGG1 [1]): neither of which had a pronounced effect on inhibiting or stabilizing OGG1
O=C(Nc1ccc(I)cc1)N1CCC(n2c(=O)oc3c(Br)cccc32)CC1 [Compound 42, 4‐(7‐bromo‐2‐oxo‐2,3‐dihydro‐1,3‐benzoxazol‐3‐yl)‐N‐(4‐iodophenyl)piperidine‐1‐carboxamide]			Activity against OGG1 (in words) (OGG1 [1]): neither of which had a pronounced effect on inhibiting or stabilizing OGG1
O=C(Nc1ccc([N+](=O)[O-])cc1)N1CCC(n2c(=O)[nH]c3c(Br)cccc32)CC1 [Compound 48, 4‐(4‐bromo‐2‐oxo‐2,3‐dihydro‐1H‐1,3‐benzodiazol‐1‐yl)‐N‐(4‐nitrophenyl)piperidine‐1‐carboxamide]			IC50 (CI95), biochemical inhibition (OGG1 [1]; [4]): no effect
CCOC(=O)c1ccc(NC(=O)N2CCC(n3c(=O)[nH]c4c(Br)cccc43)CC2)cc1 [Compound 50, Ethyl‐4‐{[4‐(4‐bromo‐2‐oxo‐2,3‐dihydro‐1H‐1,3‐benzodiazol‐1‐yl)‐piperidine‐1‐carbonyl]‐amino}‐benzoate]			IC50 (CI95), biochemical inhibition (OGG1 [1]; [4]): no effect
CC(=O)Nc1ccc(NC(=O)N2CCC(n3c(=O)[nH]c4c(Br)cccc43)CC2)cc1 [Compound 51, 4‐(4‐bromo‐2‐oxo‐2,3‐dihydro‐1H‐1,3‐benzodiazol‐1‐yl)‐N‐(4‐acetamidophenyl)piperidine‐1‐carboxamide]			IC50 (CI95), biochemical inhibition (OGG1 [1]; [4]): no effect
CN(C)c1ccc(NC(=O)N2CCC(n3c(=O)[nH]c4c(Br)cccc43)CC2)cc1 [Compound 52, 4‐(4‐bromo‐2‐oxo‐2,3‐dihydro‐1H‐1,3‐benzodiazol‐1‐yl)‐N‐[4‐(dimethylamino)phenyl]piperidine‐1‐carboxamide]	32.2		
COc1cc(NC(=O)N2CCC(n3c(=O)[nH]c4c(OC)cccc43)CC2)ccc1C [TH9525, 4‐(4‐methoxy‐2‐oxo‐2,3‐dihydro‐1H‐1,3‐benzodiazol‐1‐yl)‐N‐(3‐methoxy‐4‐methylphenyl)piperidine‐1‐carboxamide]	2		
